Patent US20230365592A1 (Agios Pharmaceuticals, Inc., priority 2022, published 2023)

Biological target: T1, human PAH with the R408W mutation (Homo sapiens, UniProt P00439, R408W)
T1 construct: expressed in transfected cells
T1 sequence (P00439 1-452 R408W): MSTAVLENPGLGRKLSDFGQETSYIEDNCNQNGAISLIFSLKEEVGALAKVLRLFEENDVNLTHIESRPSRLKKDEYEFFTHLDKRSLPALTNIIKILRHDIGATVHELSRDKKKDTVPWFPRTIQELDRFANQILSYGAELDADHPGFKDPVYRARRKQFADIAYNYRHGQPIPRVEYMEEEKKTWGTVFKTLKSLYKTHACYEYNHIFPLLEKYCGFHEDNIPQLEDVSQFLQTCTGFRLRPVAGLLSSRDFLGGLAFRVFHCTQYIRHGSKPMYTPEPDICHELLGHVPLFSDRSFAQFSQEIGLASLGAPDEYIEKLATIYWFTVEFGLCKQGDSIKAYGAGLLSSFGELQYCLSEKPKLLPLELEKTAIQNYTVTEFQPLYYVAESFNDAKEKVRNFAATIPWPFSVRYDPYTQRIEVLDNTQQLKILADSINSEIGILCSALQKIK
Experiment: Cell Based Phenylalanine Flux Assay;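 further: after compound treatment, cells received sepiapterin plus isotope-labelled Phenylalanine for 4 hours, then labelled Tyrosine in the medium was quantified, 10-point 2-fold dilution series run in duplicate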
Conditions: A375 cells expressing human R408W PAH; 24 hrs compound incubation; 13C-Tyrosine by LC-MS; average where tested multiple times; read-out: AC50

SMILES | AC50
O=C(c1nnc(C2CC2)o1)N1CCc2[nH]cnc2[C@@H]1c1cc2c(Cl)cccn2n1 [Example 1095, (R)-(4-(4-chloropyrazolo[1,5-a]pyridin-2-yl)-6,7-dihydro-1H-imidazo[4,5-c]pyridin-5(4H)-yl)(5-cyclopropyl-1,3,4-oxadiazol-2-yl)methanone] | > 5000 nM
COc1ccc(-c2nnc(C(=O)N3CCc4[nH]cnc4[C@@H]3c3cc4cccc(Cl)n4n3)o2)nc1 [Example 1096, (R)-(4-(7-chloropyrazolo[1,5-a]pyridin-2-yl)-6,7-dihydro-1H-imidazo[4,5-c]pyridin-5(4H)-yl)(5-(5-methoxypyridin-2-yl)-1,3,4-oxadiazol-2-yl)methanone] | > 5000 nM
COc1ccc(-c2nnc(C(=O)N3CCc4[nH]cnc4[C@H]3c3cc4cccc(Cl)n4n3)o2)nc1 [Example 1097, (S)-(4-(7-chloropyrazolo[1,5-a]pyridin-2-yl)-6,7-dihydro-1H-imidazo[4,5-c]pyridin-5(4H)-yl)(5-(5-methoxypyridin-2-yl)-1,3,4-oxadiazol-2-yl)methanone] | 500 to 1000 nM
Cn1cnc(-c2nnc(C(=O)N3CCc4[nH]cnc4[C@@H]3c3cc4cccc(Cl)n4n3)o2)c1 [Example 1098, (R)-(4-(7-chloropyrazolo[1,5-a]pyridin-2-yl)-6,7-dihydro-1H-imidazo[4,5-c]pyridin-5(4H)-yl)(5-(1-methyl-1H-imidazol-4-yl)-1,3,4-oxadiazol-2-yl)methanone] | > 5000 nM
Cn1cnc(-c2nnc(C(=O)N3CCc4[nH]cnc4[C@H]3c3cc4cccc(Cl)n4n3)o2)c1 [Example 1099, (S)-(4-(7-chloropyrazolo[1,5-a]pyridin-2-yl)-6,7-dihydro-1H-imidazo[4,5-c]pyridin-5(4H)-yl)(5-(1-methyl-1H-imidazol-4-yl)-1,3,4-oxadiazol-2-yl)methanone] | 500 to 1000 nM
Cn1cc(-c2nnc(C(=O)N3CCc4[nH]cnc4[C@H]3c3cc4ccc(F)cn4n3)o2)cn1 [Example 1100, (S)-(4-(6-fluoropyrazolo[1,5-a]pyridin-2-yl)-6,7-dihydro-1H-imidazo[4,5-c]pyridin-5(4H)-yl)(5-(1-methyl-1H-pyrazol-4-yl)-1,3,4-oxadiazol-2-yl)methanone] | 500 to 1000 nM
Cn1cc(-c2nnc(C(=O)N3CCc4[nH]cnc4[C@@H]3c3cc4ccc(F)cn4n3)o2)cn1 [Example 1101, (R)-(4-(6-fluoropyrazolo[1,5-a]pyridin-2-yl)-6,7-dihydro-1H-imidazo[4,5-c]pyridin-5(4H)-yl)(5-(1-methyl-1H-pyrazol-4-yl)-1,3,4-oxadiazol-2-yl)methanone] | > 5000 nM
Cn1ccc(-c2nnc(C(=O)N3CCc4[nH]cnc4[C@H]3c3cc4ccc(F)cn4n3)o2)n1 [Example 1102, (S)-(4-(6-fluoropyrazolo[1,5-a]pyridin-2-yl)-6,7-dihydro-1H-imidazo[4,5-c]pyridin-5(4H)-yl)(5-(1-methyl-1H-pyrazol-3-yl)-1,3,4-oxadiazol-2-yl)methanone] | 500 to 1000 nM
Cn1ccc(-c2nnc(C(=O)N3CCc4[nH]cnc4[C@@H]3c3cc4ccc(F)cn4n3)o2)n1 [Example 1103, (R)-(4-(6-fluoropyrazolo[1,5-a]pyridin-2-yl)-6,7-dihydro-1H-imidazo[4,5-c]pyridin-5(4H)-yl)(5-(1-methyl-1H-pyrazol-3-yl)-1,3,4-oxadiazol-2-yl)methanone] | > 5000 nM
O=C(c1ocnc1C(F)F)N1CCc2[nH]cnc2[C@@H]1c1cc2ccc(C(F)(F)F)cn2n1 [Example 1105, (R)-(4-(difluoromethyl)oxazol-5-yl)(4-(6-(trifluoromethyl)pyrazolo[1,5-a]pyridin-2-yl)-6,7-dihydro-1H-imidazo[4,5-c]pyridin-5(4H)-yl)methanone] | 1000 to 5000 nM
Cc1nnc(C(=O)N2CCc3[nH]cnc3[C@H]2c2cc3c(Cl)cccn3n2)o1 [Example 1106, (S)-(4-(4-chloropyrazolo[1,5-a]pyridin-2-yl)-6,7-dihydro-1H-imidazo[4,5-c]pyridin-5(4H)-yl)(5-methyl-1,3,4-oxadiazol-2-yl)methanone] | < 500 nM
Cc1nnc(C(=O)N2CCc3[nH]cnc3[C@@H]2c2cc3c(Cl)cccn3n2)o1 [Example 1107, (R)-(4-(4-chloropyrazolo[1,5-a]pyridin-2-yl)-6,7-dihydro-1H-imidazo[4,5-c]pyridin-5(4H)-yl)(5-methyl-1,3,4-oxadiazol-2-yl)methanone] | 1000 to 5000 nM
CC(C)(F)c1nnc(C(=O)N2CCc3[nH]cnc3[C@@H]2c2cc3c(Cl)cccn3n2)o1 [Example 1108, (R)-(4-(4-chloropyrazolo[1,5-a]pyridin-2-yl)-6,7-dihydro-1H-imidazo[4,5-c]pyridin-5(4H)-yl)(5-(2-fluoropropan-2-yl)-1,3,4-oxadiazol-2-yl)methanone] | > 5000 nM
Cc1ccc2cc([C@H]3c4nc[nH]c4CCN3C(=O)c3nnc(C(C)(C)C)o3)nn2c1 [Example 1111, (R)-(5-(tert-butyl)-1,3,4-oxadiazol-2-yl)(4-(6-methylpyrazolo[1,5-a]pyridin-2-yl)-6,7-dihydro-1H-imidazo[4,5-c]pyridin-5(4H)-yl)methanone] | > 5000 nM
Cc1ccc2cc([C@@H]3c4nc[nH]c4CCN3C(=O)c3ccnn3C(F)F)nn2c1 [Example 1112, (S)-(1-(difluoromethyl)-1H-pyrazol-5-yl)(4-(6-methylpyrazolo[1,5-a]pyridin-2-yl)-6,7-dihydro-1H-imidazo[4,5-c]pyridin-5(4H)-yl)methanone] | < 500 nM
Cc1ccc2cc([C@H]3c4nc[nH]c4CCN3C(=O)c3ccnn3C(F)F)nn2c1 [Example 1113, (R)-(1-(difluoromethyl)-1H-pyrazol-5-yl)(4-(6-methylpyrazolo[1,5-a)pyridin-2-yl)-6,7-dihydro-1H-imidazo[4,5-c]pyridin-5(4H)-yl)methanone] | 1000 to 5000 nM
CC(C)(F)c1nnc(C(=O)N2CCc3[nH]cnc3[C@H]2c2cc3ccc(F)cn3n2)o1 [Example 1114, (S)-(5-(2-fluoropropan-2-yl)-1,3,4-oxadiazol-2-yl)(4-(6-fluoropyrazolo[1,5-a]pyridin-2-yl)-6,7-dihydro-1H-imidazo[4,5-c]pyridin-5(4H)-yl)methanone] | 500 to 1000 nM
O=C(c1nnc(-c2ccn(C(F)F)n2)o1)N1CCc2[nH]cnc2[C@@H]1c1cc2c(Cl)cccn2n1 [Example 1119, (R)-(4-(4-chloropyrazolo[1,5-a]pyridin-2-yl)-6,7-dihydro-1H-imidazo[4,5-c]pyridin-5(4H)-yl)(5-(1-(difluoromethyl)-1H-pyrazol-3-yl)-1,3,4-oxadiazol-2-yl)methanone] | > 5000 nM
O=C(c1nnc(-c2cnn(C(F)F)c2)o1)N1CCc2[nH]cnc2[C@H]1c1cc2cccc(Cl)n2n1 [Example 1120, (S)-(4-(7-chloropyrazolo[1,5-a]pyridin-2-yl)-6,7-dihydro-1H-imidazo[4,5-c]pyridin-5(4H)-yl)(5-(1-(difluoromethyl)-1H-pyrazol-4-yl)-1,3,4-oxadiazol-2-yl)methanone] | < 500 nM
O=C(c1nnc(-c2cnn(C(F)F)c2)o1)N1CCc2[nH]cnc2[C@@H]1c1cc2cccc(Cl)n2n1 [Example 1121, (R)-(4-(7-chloropyrazolo[1,5-a]pyridin-2-yl)-6,7-dihydro-1H-imidazo[4,5-c]pyridin-5(4H)-yl)(5-(1-(difluoromethyl)-1H-pyrazol-4-yl)-1,3,4-oxadiazol-2-yl)methanone] | 1000 to 5000 nM
